The test system of experiment [1] is children with non-syndromic autism spectrum disorder (ASD) and language impairment. In words: Randomized placebo-controlled trial: Vineland Adaptive Behavior Scale (VABS). In kind it is in vivo, human. Conditions: higher = better; for VABS Daily living, estimated effect: calcium salt. How it is done:
The Vineland Adaptive Behavior Scale 2nd Edition (“VABS”) is a reliable and valid measure of the ability to perform age-appropriate everyday skills though a 20-30 min structured interview with a caretaker. Standard scores from the communication, daily living, social and motor skills, and adaptive behavioral composite were analyzed. Standard scores have a mean of 100, standard deviation of 15 and range 20-160. […] This two-arm double-blind randomized placebo-controlled parallel study with a 1:1 allocation was performed at Arkansas Children's Research Institute (Little Rock, Ark., USA) from 4 Jun. 2012 to 22 Nov. 2013. Those confirmed to have language impairment were randomized to the folinic acid or placebo group and a fasting blood sample was obtained. Randomization was performed using a random number generator with a block size of four. The research pharmacists had exclusive access to the randomization allocation. After breakfast, the participants returned for language, developmental and behavioral assessments. Following these assessments the family was given the 12 weeks of the intervention and was instructed on its administration. Language, developmental and behavioral assessments were repeated after 12 weeks of treatment. The target dose of the intervention (INN: DL folinic acid calcium salt; USAN: leucovorin calcium) was 2 mg kg^−1 per day (maximum 50 mg per day) in two equally divided doses with half of the target dose given during the first 2 weeks. Dye-free, milk-product-free, vegetarian capsules were provided in three strengths (5, 10 and 25 mg) by Lee Silsby Compounding Pharmacy (Cleveland Heights, Ohio, USA). Certificate of analysis was provided for each capsule strength by an independent analytical service (Eagle Analytical Services, Houston, Tex., USA) for each batch of capsules produced. In all cases, potency was at least 99%. Secondary outcomes. Secondary outcome measures included the Ohio Autism Clinical Impression Scale (OACIS), Vineland Adaptive Behavior Scale 2nd Edition (VABS) Survey Interview Form and several questionnaires. Parents and teachers were asked to complete the Aberrant Behavior Checklist (ABC), Social Responsiveness Scale (SRS) and Behavioral Assessment System for Children 2nd Edition (BASC). Only parents were asked to complete the Autism Impact Measure (AIM) and Autism Symptoms Questionnaire (ASQ). Secondary outcome measures were analyzed using the mixed-model regression. Because of the large number of secondary outcomes, correction for multiple comparisons was conducted using the false discovery rate.

Experiment [2] has the same test system. As to the kind of experiment: Randomized placebo-controlled trial: Social Responsiveness Scale (SRS). In kind it is in vivo, human. To be noted: lower = less social symptoms. The text has this:
The Social Responsiveness Scale (“SRS”) is a 65-item questionnaire that measures social skills across five domains: Social Awareness (8 items, meaningful change 7.1), Social Cognition (12 items, meaningful change 5.8), Social Communication (22 items, meaningful change 4.2), Social Motivation (11 items, meaningful change 5.7), Autistic Mannerisms (12 items, meaningful change 5.5) and total (65 items). Each item is rated 0 to 3 with higher scores indicating greater severity. Standardized T-scores (mean 50, standard deviation 10) range 30-90. This two-arm double-blind randomized placebo-controlled parallel study with a 1:1 allocation was performed at Arkansas Children's Research Institute (Little Rock, Ark., USA) from 4 Jun. 2012 to 22 Nov. 2013. Parent and teacher questionnaires were requested at baseline and 6 and 12 weeks after starting treatment. Parents were asked to deliver baseline questionnaires to teachers or therapists. After the first visit, questionnaires were mailed to the parents and teachers at least 1 week prior to the target date of completion. Parents were asked to bring the completed teacher and parent 12-week questionnaires to the final assessment. Other questionnaires were returned in a preaddressed postage-paid envelope. The target dose of the intervention (INN: DL folinic acid calcium salt; USAN: leucovorin calcium) was 2 mg kg^−1 per day (maximum 50 mg per day) in two equally divided doses with half of the target dose given during the first 2 weeks. Dye-free, milk-product-free, vegetarian capsules were provided in three strengths (5, 10 and 25 mg) by Lee Silsby Compounding Pharmacy (Cleveland Heights, Ohio, USA). Certificate of analysis was provided for each capsule strength by an independent analytical service (Eagle Analytical Services, Houston, Tex., USA) for each batch of capsules produced. In all cases, potency was at least 99%. Secondary outcomes. Secondary outcome measures included the Ohio Autism Clinical Impression Scale (OACIS), Vineland Adaptive Behavior Scale 2nd Edition (VABS) Survey Interview Form and several questionnaires. Parents and teachers were asked to complete the Aberrant Behavior Checklist (ABC), Social Responsiveness Scale (SRS) and Behavioral Assessment System for Children 2nd Edition (BASC). Only parents were asked to complete the Autism Impact Measure (AIM) and Autism Symptoms Questionnaire (ASQ). Secondary outcome measures were analyzed using the mixed-model regression. Because of the large number of secondary outcomes, correction for multiple comparisons was conducted using the false discovery rate.

The mark [3] stands for this setting: vs placebo, mixed-model regression.

The values below come from patent publication US20190111059A1, “COMPOSITIONS AND METHODS FOR TREATING AUTISM SPECTRUM DISORDER” (Marinus Pharmaceuticals, Inc., priority 2017, published 2019).

Structures can show the parent of a compound that is named as a salt.

For the molecule `Nc1nc2c(c(=O)[nH]1)N(C=O)C(CNc1ccc(C(=O)N[C@@H](CCC(=O)O)C(=O)O)cc1)CN2` (mixture of isomers) [Folinic acid, DL folinic acid calcium salt], the “VABS Social skills, 12-week assessment mean” value in experiment [1] (2 mg kg^−1 per day, 12 weeks, baseline 64.4) stood at 68.3 Standard Score. For the same molecule, in experiment [1] (2 mg kg^−1 per day, 12 weeks, baseline 64.6), the “VABS Daily living, 12-week assessment mean” value came to 69.2 Standard Score. Besides, the “VABS Adaptive behavior, 12-week assessment mean” value in experiment [1] (2 mg kg^−1 per day, 12 weeks, baseline 64.8) stood at 67.7 Standard Score. The “VABS Communication, 12-week assessment mean” value in experiment [1] (2 mg kg^−1 per day, 12 weeks, baseline 66.2) is reported as 68.3 Standard Score. Also, the “VABS Motor skills, 12-week assessment mean” value in experiment [1] (2 mg kg^−1 per day, 12 weeks, baseline 78.9) is 81.7 Standard Score. In addition, in experiment [1] (setting [3]), the “VABS Adaptive behavior, estimated effect” value was 0.3 Standard Score; the “VABS Communication, estimated effect” value was 0.2 Standard Score; the “VABS Motor skills, estimated effect” value is listed as 0.1 Standard Score; the “VABS Social skills, estimated effect” value is 0.2 Standard Score. Further, the “VABS Daily living, estimated effect” value in experiment [1] (setting [3]) was 0.5 Standard Score. In experiment [1] (vs placebo, mixed-model regression, listed as folinic acid), the “VABS Daily living, estimated effect” value is on record as “significantly improved”. For the same molecule, the “SRS Motivation, 12-week assessment mean” value in experiment [2] (2 mg kg^−1 per day, 12 weeks, baseline 75.5) amounted to 70.3 T-Scores. The “SRS Awareness, 12-week assessment mean” value in experiment [2] (2 mg kg^−1 per day, 12 weeks, baseline 79.2) was found to be 78.7 T-Scores. In addition, the “SRS Communication, 12-week assessment mean” value in experiment [2] (2 mg kg^−1 per day, 12 weeks, baseline 82.5) is on record as 80.1 T-Scores. Also, the “SRS Mannerisms, 12-week assessment mean” value in experiment [2] (2 mg kg^−1 per day, 12 weeks, baseline 83.4) turned out to be 80.5 T-Scores. For the same molecule, the “SRS Cognition, 12-week assessment mean” value in experiment [2] (2 mg kg^−1 per day, 12 weeks, baseline 83.7) came to 79.3 T-Scores. The “SRS Total, 12-week assessment mean” value in experiment [2] (2 mg kg^−1 per day, 12 weeks, baseline 84.9) came to 82.2 T-Scores. Further, in experiment [2] (setting [3]), the “SRS Awareness, estimated effect” value is 0.3 T-Scores; the “SRS Cognition, estimated effect” value was 0.8 T-Scores; the “SRS Communication, estimated effect” value was 1.5 T-Scores; the “SRS Mannerisms, estimated effect” value is given as 0.9 T-Scores. In experiment [2] (setting [3]), the “SRS Motivation, estimated effect” value was 0.2 T-Scores and the “SRS Total, estimated effect” value is 0.8 T-Scores.
